Consider 13 compounds from ChEMBL document CHEMBL1201862, “PubChem BioAssay data set” (2004).

Among the test systems are RXF 393; UO-31; HOP-92; K562; SN12C; SF-539; OVCAR-3; HCT-15; NCI-H23; MCF7; SNB-19; TK-10; SR; SW-620; SK-MEL-2; Malme-3M; 786-0; A498.
Common to all, as to assay: inhibition of tumour cell growth, NCI panel, 48 h

Molecules are shown by their SMILES.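 Step 1: Grow cells in 96-well plates. Step 2: Expose to compound for 48 hours at 5 concentrations. Step 3: Interpolate endpoints linearly; if unreached, use highest concentration. GI50 is the concentration that inhibits growth by half.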 Calls of active or inactive are those of the source. Cut-off read from the data, not from the text of the source: active = GI50 up to about 1.1 µM and inactive = higher.

Consider `CCOC(=O)C1=NN(c2ccc(Cl)cc2)C2=CC(C)=NN(C)C(=S)N21`, for which the GI50 in the assay with RXF 393 is 25.4 µM (inactive); in the assay with UO-31, > 100 µM (inactive); in the assay on HOP-92, 30.8 µM (inactive); in the assay with K562 it was > 100 µM (inactive); with SN12C, 51.5 µM (inactive); in the assay with SF-539, 22.6 µM (inactive). The GI50 is 56.5 µM (inactive) in the assay with OVCAR-3; 67.5 µM in the assay with HCT-15; 42.1 µM (inactive) in the assay with NCI-H23; > 10 µM (inactive) in the assay with MCF7; 41.5 µM (inactive) in the assay on SNB-19; 22 µM (inactive) with TK-10. The figures for the GI50 in the assay on SR, with SW-620 and with SK-MEL-2 were > 100 µM (inactive), 94.6 µM (inactive) and > 10 µM (inactive), respectively.
In the case of `CC(=C(c1ccccc1)c1ccccc1)N1C(=O)CC(=O)N1C`, the GI50 in the assay on RXF 393 is 15.4 µM (inactive); with UO-31 it was 17.1 µM (inactive); in the assay on HOP-92 it was 45.5 µM (inactive); in the assay on K562, 55.5 µM (inactive); with SN12C it was > 100 µM (inactive); with SF-539, 26.3 µM (inactive). Besides, the GI50 is 32.4 µM (inactive) with OVCAR-3; > 100 µM (inactive) in the assay on NCI-H23; 43.8 µM (inactive) with MCF7; 81.7 µM (inactive) in the assay with SNB-19; 43.3 µM (inactive) in the assay on TK-10; > 100 µM (inactive) in the assay with SW-620. Moreover, the GI50 in the assay on SK-MEL-2 is 16.7 µM (inactive).
As to `CN1C(=O)CC(=O)N1/C(=C/c1ccccc1)c1ccccc1`, the GI50 is 14 µM (inactive) with RXF 393; 18.1 µM (inactive) with UO-31; 75.5 µM (inactive) in the assay on HOP-92; 55.6 µM (inactive) with K562; > 100 µM (inactive) with SN12C; 39.3 µM (inactive) in the assay on OVCAR-3. The GI50 was > 100 µM (inactive) in the assay with NCI-H23; 47.2 µM (inactive) in the assay on MCF7; > 100 µM (inactive) with SNB-19; 33 µM (inactive) in the assay on TK-10; 76.4 µM (inactive) in the assay on SR; > 100 µM (inactive) with SW-620. In addition, the GI50 in the assay with SK-MEL-2 is 38.5 µM (inactive).
Take `Cc1ccc(C(=O)Cc2nc3c([nH]c2=O)c(C)nn3-c2ccccc2)c(C)c1`: the GI50 in the assay with Malme-3M is > 10 µM (inactive); in the assay with HOP-92, 6.04 µM (inactive); in the assay on K562, > 10 µM (inactive); with SN12C it was > 10 µM (inactive); with SF-539 it was > 10 µM (inactive); in the assay with OVCAR-3 it was 3.25 µM (inactive). For the same compound, the GI50 with HCT-15 is greater than 10 µM; with NCI-H23 it was > 10 µM (inactive); in the assay with MCF7 it was > 10 µM (inactive); with 786-0, 3.55 µM (inactive); with SNB-19, > 10 µM (inactive); with TK-10 it was > 10 µM (inactive). The GI50 in the assay with SR is > 10 µM (inactive); in the assay on SW-620, 6.59 µM (inactive).
As for `Cc1cc(=O)n2nc(CCl)sc2n1`, the GI50 in the assay on RXF 393 was 5.94 µM (inactive); in the assay with Malme-3M it was 12.8 µM (inactive); in the assay on UO-31, 14.3 µM (inactive); in the assay with HOP-92, 12.6 µM (inactive); in the assay on K562, 17.8 µM (inactive); in the assay on SN12C, 14.3 µM (inactive). For the same compound, the GI50 was 18.7 µM (inactive) with SF-539; 14.9 µM (inactive) in the assay with OVCAR-3; 13.6 µM with HCT-15; 23.2 µM (inactive) with NCI-H23; 13.8 µM (inactive) with MCF7; 15.7 µM (inactive) in the assay on 786-0. In addition, the GI50 in the assay on SNB-19 was 15.8 µM (inactive); with TK-10, 10.2 µM (inactive); in the assay with SR it was 13.1 µM (inactive); in the assay with SW-620, 15.8 µM (inactive); in the assay with SK-MEL-2, 10.5 µM (inactive).
With `COc1ccc2c(c1)c1c(n2CCN(C)C)-c2ccccc2CC1`, the GI50 with Malme-3M was 20.3 µM (inactive); in the assay on UO-31, 13.5 µM (inactive); with HOP-92, 16.5 µM (inactive); in the assay with K562, 11.5 µM (inactive); with SN12C, 14.1 µM (inactive); in the assay on SF-539 it was 14 µM (inactive). For the same compound, the GI50 was 16.6 µM (inactive) in the assay with OVCAR-3; 13.7 µM with HCT-15; 18 µM (inactive) with NCI-H23; 18.3 µM (inactive) in the assay with MCF7; 16.1 µM (inactive) in the assay on 786-0; 15.7 µM (inactive) with SNB-19. Moreover, the figures for the GI50 in the assay with TK-10, with SW-620 and in the assay on SK-MEL-2 were 15.9 µM (inactive), 16.8 µM (inactive) and 16.1 µM (inactive), respectively.
Turning to `CC12CCC(=O)[C@@]1(C)CCCC2O` (stereo not given in full), the GI50 was > 100 µM (inactive) with Malme-3M; > 100 µM (inactive) in the assay on UO-31; > 100 µM (inactive) in the assay on K562; > 100 µM (inactive) in the assay on SN12C; > 100 µM (inactive) with SF-539; greater than 100 µM in the assay on HCT-15. Besides, the GI50 in the assay with NCI-H23, in the assay with MCF7, in the assay on 786-0, in the assay with SNB-19, with TK-10 and in the assay with SR was > 100 µM (inactive) in each case. Besides, the GI50 in the assay on SW-620 and in the assay with SK-MEL-2 was > 100 µM (inactive) in each case.
As for `CCN(CC)CCCNc1nc(=O)[nH]c(C)c1C(=O)Nc1ccc2c(c1)c1ccccc1n2CC`, the GI50 in the assay on RXF 393, in the assay with Malme-3M, in the assay on UO-31, with HOP-92, with K562 and in the assay on SN12C was > 100 µM (inactive) in each case. The GI50 in the assay on SF-539 was > 100 µM (inactive); with OVCAR-3, > 100 µM (inactive); with HCT-15 it was greater than 100 µM; with NCI-H23, > 100 µM (inactive); in the assay on MCF7, > 100 µM (inactive); in the assay on 786-0 it was > 100 µM (inactive). The GI50 in the assay with SNB-19, in the assay on TK-10, in the assay with SW-620 and with SK-MEL-2 was > 100 µM (inactive) each time.
On to `Cc1ccnc2nc(N)ccc12`, for which the GI50 with RXF 393, in the assay with A498, with Malme-3M, in the assay with UO-31, with K562 and in the assay with SN12C was > 100 µM (inactive) each time. For the same compound, the GI50 in the assay on SF-539 was > 100 µM (inactive); in the assay on HCT-15 it was greater than 100 µM; with NCI-H23, > 100 µM (inactive); in the assay on 786-0, > 100 µM (inactive); in the assay on SNB-19, > 100 µM (inactive); in the assay on TK-10 it was > 100 µM (inactive). The GI50 in the assay on SR, with SW-620 and with SK-MEL-2 was > 100 µM (inactive) each time.
In the case of `CN(C1=NCCO1)c1cccc2ccccc12`, the GI50 in the assay with RXF 393, in the assay on A498, in the assay with Malme-3M, in the assay on UO-31, in the assay with K562 and with SN12C was > 10 µM (inactive) throughout. For the same compound, the GI50 with SF-539 is > 10 µM (inactive); in the assay on OVCAR-3, > 10 µM (inactive); in the assay on HCT-15 it was greater than 10 µM; with NCI-H23 it was > 10 µM (inactive); in the assay on MCF7, > 10 µM (inactive); in the assay with SNB-19, > 10 µM (inactive). In addition, the GI50 with TK-10, in the assay on SR, in the assay with SW-620 and with SK-MEL-2 was > 10 µM (inactive) in each case.
On to `O=C(O)C(F)(F)C(F)(F)C(F)(F)C(F)(F)C(F)(F)C(F)(F)C(F)(F)C(F)(F)F`, for which the GI50 is > 100 µM (inactive) with RXF 393; 38.3 µM (inactive) in the assay on A498; > 100 µM (inactive) in the assay on Malme-3M; 47.5 µM (inactive) in the assay with UO-31; 24.9 µM (inactive) in the assay on HOP-92; 27.1 µM (inactive) with K562. Moreover, the GI50 was 50.5 µM (inactive) in the assay with SN12C; 43.2 µM (inactive) with SF-539; 43.8 µM (inactive) in the assay on OVCAR-3; 27.4 µM in the assay on HCT-15; 61.4 µM (inactive) in the assay on NCI-H23; 57 µM (inactive) in the assay on MCF7. The GI50 is 83.9 µM (inactive) in the assay with 786-0, 39.6 µM (inactive) with SNB-19, > 100 µM (inactive) in the assay on TK-10 and 52.5 µM (inactive) in the assay on SW-620.
With `CC1(C)CN=C(Nc2ccc(F)cc2)S1`, the GI50 in the assay with RXF 393 is > 100 µM (inactive); with Malme-3M it was > 100 µM (inactive); with UO-31 it was > 100 µM (inactive); with HOP-92, 59.7 µM (inactive); in the assay with K562, > 100 µM (inactive); in the assay with SN12C, > 100 µM (inactive). Further, the GI50 is > 100 µM (inactive) in the assay on SF-539; > 100 µM (inactive) in the assay on OVCAR-3; greater than 100 µM in the assay with HCT-15; > 100 µM (inactive) with NCI-H23; > 100 µM (inactive) in the assay on MCF7; > 100 µM (inactive) with 786-0. In addition, the GI50 in the assay with SNB-19, in the assay on TK-10, in the assay on SR, in the assay on SW-620 and in the assay with SK-MEL-2 was > 100 µM (inactive) each time.
In the case of `CN(C)C(=O)C(F)(F)C(c1ccc(Br)cc1)C1C(=O)N(C)C(=O)N(C)C1=O` (stereo not given), the GI50 with RXF 393, in the assay on A498, in the assay on UO-31, in the assay on HOP-92, in the assay with K562 and with OVCAR-3 was > 100 µM (inactive) in each case. The GI50 was greater than 100 µM with HCT-15; > 100 µM (inactive) in the assay on NCI-H23; > 100 µM (inactive) in the assay with MCF7; > 100 µM (inactive) in the assay with 786-0; > 100 µM (inactive) with SNB-19; > 100 µM (inactive) in the assay on TK-10. Also, the GI50 with SW-620 and in the assay with SK-MEL-2 was > 100 µM (inactive) each time.
